Key:
macrophage = assay: Activation of macrophage by cyanine dye (adherent ascites cells of treated mice cultured with Meth A ascitic tumor cells, 3H-thymidine incorporation); format: cell-based, BALB/c mice; details: 50 ng/0.2 ml/animal intraperitoneal to mice, cells collected two days later
Protocol: Two days after the administration, the ascites of the mice were extracted, and the cells which adhered onto plastic Petri dish were collected.
Control group was intraperitoneally administered with 0.2 ml saline.
Thereafter, the incorporation of ^3 H-thymidine in the tumor cell was determined by conventional method, and the growth inhibitory rate for tumor (%) was calculated with the following equation.

MC-1 cell = assay: Antitumor effect by growth inhibition of tumor (MC-1, with or without light-irradiation); format: in vivo, C57BL/6 mice; details: for Mean wet weight of tumor: 27th day, * significant at 5% or lower; for Rate of survival (%): 35th day
Protocol: Compounds No.1, 7 and 8 in Table I were evaluated for their antitumor activity using as the criterion the growth inhibitory effect on MC-1 cell, a methylcholanthrene-induced syngenic tumor.
Eight week-old female C57BL/6 mice were subcutaneously transplanted in their dorsum area with 1×10^5 cells/animal of MC-1 cell. Five days after the transplantation, a group of seven mice with a successful transplantation were subcutaneously administered with either Compound No.1, 7 or 8 in Table I twice a week over a period of 25 days while monitoring the mice.
One another group of mice were light-irradiated with 100 W medical infrared lamp (100 V) placed about one meter in apart immediately after every administration of either Compound No.1, 7 or 8.
Control group was subcutaneously administered with 0.2 ml saline in accordance with the same administration schedule.
On the 27th day after the transplantation, the wet weight of tumor was determined by the method in Y. Shimosato and N. Tamaoki, Human Cancer and Nude mice, pp. 321-323, published by Ishiyaku Publishers Inc., Tokyo, Japan (1982), as well as monitoring the rate (%) of survivals on the 35th day.

Acute toxicity (LD50) = format: in vivo; details: mouse, in vivo, 7 days
Protocol: (§1) Either of Compounds No.1-8 in Table I was dissolved or suspended in saline containing 5% gum arabic, and a group of ddy mice, about 10-20 g each, received an intraperitoneal or oral administration of the resultant mixture occasionally through a stomach tube, followed by monitoring and counting dead mice for an additional 7 days to determine respective LD50 value in accordance with the Van der Waerden's method.

[1] = test system: Meth A ascitic tumor cell; assay: Antitumor effect on tumor-bearing mouse (life-span increasing effect, Meth A ascitic tumor); format: in vivo, BALB/c mice; details: for Mean survival days: i.p. twice a week over 40 days, * significant to control at 5% or lower; for Increase in life-span (T/C %) / Survivals after 40 days: i.p.; for Increase in life-span (T/C %): control = 100; for Survivals after 40 days: group of seven mice
Protocol: Compounds No.1, 7 and 8 in Table I were evaluated for their antitumor activity using as the criterion the life-span increasing effect on tumor-bearing mice which had received the transplantation of Meth A ascitic tumor cell.
More particularly, 8 week-old male BALB/c mice were intraperitoneally transplanted with 1×10^5 cells/mouse of Meth A cell. Ten days after the transplantation, a group of seven mice with a successful transplantation were intraperitoneally administered with either Compound No.1, 7 or 8 in Table I twice a week over a period of 40 days while monitoring the mice.
Control group was intraperitoneally administered with 0.2 ml saline in accordance with the same administration schedule.
The rate of increase in life-span (T/C %) under the above conditions was calculated from the mean survival days found for the test group (T) and control group (C). [formula]

Meth A ascitic tumor = assay: Synergistic effect by the combination with hyperthermia (growth inhibition of Meth A tumor); format: in vivo, BALB/c mice; details: 20 ng/0.1 ml/animal s.c. twice a week; for Mean wet weight of tumor: 40th day; for Growth inhibitory rate for tumor (%): control = 100
Protocol: More particularly, 6 week-old BALB/c mice were subcutaneously transplanted in their femoral area with 2×10^5 cells/animal of Meth A cell. […] Immediately after every administration, the tumoral sites of the mice were soaked in about 42° C. water bath for about 60 minutes. On the 40th day after the transplantation, the mean wet weight of tumor was determined by the method in Experiment 2-2.
Separately, one of other groups was administered with either cyanine dye, and determined for its mean wet weight of tumor, while one another group was first administered with saline, then subjected to hyperthermia, followed by determining the mean wet weight of tumor.
Control group was subcutaneously injected with 0.1 ml saline in the femoral area.
The mean wet weights of tumor were put into the following equation to calculate the growth inhibitory rate for tumor (%) which was then used to evaluate any synergistic effect by the combination of cyanine dye and hyperthermia. [formula]

ddy mice = assay: Acute toxicity (LD50); format: in vivo; details: 7 days
Protocol: as §1

[2] = 0.5 ng/0.2 ml/animal s.c., combined with light-irradiation
[3] = 0.5 ng/0.2 ml/animal s.c., no light-irradiation
[4] = 5 ng/0.2 ml/animal s.c., combined with light-irradiation
[5] = 5 ng/0.2 ml/animal s.c., no light-irradiation
[6] = 50 ng/0.2 ml/animal s.c., combined with light-irradiation
[7] = 50 ng/0.2 ml/animal s.c., no light-irradiation
[8] = ip, intraperitoneal administration
[9] = combined with hyperthermia (about 42° C., 60 minutes)
[10] = intraperitoneal administration, 10080 min

SMILES	Growth inhibitory rate (%) (macrophage)	Mean wet weight of tumor (MC-1 cell; [2]) [g]	Rate of survival (%) (MC-1 cell; [2])	Mean wet weight of tumor (MC-1 cell; [3]) [g]	Rate of survival (%) (MC-1 cell; [3])	Mean wet weight of tumor (MC-1 cell; [4]) [g]	Rate of survival (%) (MC-1 cell; [4])	Mean wet weight of tumor (MC-1 cell; [5]) [g]	Rate of survival (%) (MC-1 cell; [5])	Mean wet weight of tumor (MC-1 cell; [6]) [g]	Rate of survival (%) (MC-1 cell; [6])	Mean wet weight of tumor (MC-1 cell; [7]) [g]	Rate of survival (%) (MC-1 cell; [7])	LD50 at 168 h (Acute toxicity (LD50); [8]) [mg/kg]	LD50 at 168 h (Acute toxicity (LD50); po, oral administration) [mg/kg]	Mean survival days ([1]; 0.5 ng/0.2 ml/animal) [days]	Increase in life-span (T/C %) ([1]; 0.5 ng/0.2 ml/animal) [%]	Survivals after 40 days ([1]; 0.5 ng/0.2 ml/animal)	LD50 (ddy mice; [10]) [mg/kg body weight]	LD50 (ddy mice; oral administration) [g/kg body weight]	other results
CCCCN1C=CC(=CC=C(C=Cc2cc[n+](CCCC)c3ccccc23)c2cc[n+](CCCC)c3ccccc23)c2ccccc21	37.6	3.3 ± 0.6	85.7	4.7 ± 1.0	71.4	1.9 ± 0.8	100	3.5 ± 0.8	100	2.6 ± 0.5	100	4.0 ± 0.4	85.7	84	≥ 4000	31.1 ± 4.2	105	0	–	–	Mean survival days ([1]; 5 ng/0.2 ml/animal): 42.9 ± 6.0 days; Increase in life-span (T/C %) ([1]; 5 ng/0.2 ml/animal): 145%; Survivals after 40 days ([1]; 5 ng/0.2 ml/animal): 5; Mean survival days ([1]; 50 ng/0.2 ml/animal): 39.9 ± 5.4 days; Increase in life-span (T/C %) ([1]; 50 ng/0.2 ml/animal): 135%; Survivals after 40 days ([1]; 50 ng/0.2 ml/animal): 4; Mean wet weight of tumor (Meth A ascitic tumor; [9]): 0.62 ± 0.45 g; Growth inhibitory rate for tumor (%) (Meth A ascitic tumor; combined with hyperthermia): 12.6%; Mean wet weight of tumor (Meth A ascitic tumor; no hyperthermia): 3.35 ± 1.75 g; Growth inhibitory rate for tumor (%) (Meth A ascitic tumor; no hyperthermia): 68.2%
CCN1C=CC(=CC=C(C=Cc2cc[n+](CC)c3ccccc23)c2cc[n+](CC)c3ccccc23)c2ccccc21 [Compound No.1, [bis-4-(ethylquinoline)][γ-4'-(1-ethylquinoline)] pentamethine cyanine diiodide]	25.1	2.8 ± 0.3	100	4.1 ± 0.5	85.7	0.8 ± 0.1	100	3.1 ± 0.4	100	1.5 ± 0.3	100	3.7 ± 0.2	100	34	≥ 4000	36.1 ± 4.3	122	2	–	–	Mean survival days ([1]; 5 ng/0.2 ml/animal): 48.9 ± 4.2 days; Increase in life-span (T/C %) ([1]; 5 ng/0.2 ml/animal): 165%; Survivals after 40 days ([1]; 5 ng/0.2 ml/animal): 7; Mean survival days ([1]; 50 ng/0.2 ml/animal): 45.6 ± 4.2 days; Increase in life-span (T/C %) ([1]; 50 ng/0.2 ml/animal): 154%; Survivals after 40 days ([1]; 50 ng/0.2 ml/animal): 6; Mean wet weight of tumor (Meth A ascitic tumor; [9]): 0.12 ± 0.15 g; Growth inhibitory rate for tumor (%) (Meth A ascitic tumor; combined with hyperthermia): 2.4%; Mean wet weight of tumor (Meth A ascitic tumor; no hyperthermia): 3.24 ± 1.45 g; Growth inhibitory rate for tumor (%) (Meth A ascitic tumor; no hyperthermia): 65.9%
CN1C(=CC=C(C=Cc2sc3ccccc3[n+]2C)c2sc3ccccc3[n+]2C)Sc2ccccc21 [Compound No.8]	27.3	2.9 ± 0.7	100	3.6 ± 0.4	71.4	0.5 ± 0.5	100	2.9 ± 0.9	100	1.2 ± 0.2	100	3.5 ± 0.5	85.7	40	≥ 4000	34.4 ± 5.7	116	1	–	–	Mean survival days ([1]; 5 ng/0.2 ml/animal): 49.3 ± 5.6 days; Increase in life-span (T/C %) ([1]; 5 ng/0.2 ml/animal): 167%; Survivals after 40 days ([1]; 5 ng/0.2 ml/animal): 7; Mean survival days ([1]; 50 ng/0.2 ml/animal): 43.7 ± 4.0 days; Increase in life-span (T/C %) ([1]; 50 ng/0.2 ml/animal): 148%; Survivals after 40 days ([1]; 50 ng/0.2 ml/animal): 6; Mean wet weight of tumor (Meth A ascitic tumor; [9]): 0.90 ± 0.66 g; Growth inhibitory rate for tumor (%) (Meth A ascitic tumor; combined with hyperthermia): 18.3%; Mean wet weight of tumor (Meth A ascitic tumor; no hyperthermia): 3.40 ± 1.38 g; Growth inhibitory rate for tumor (%) (Meth A ascitic tumor; no hyperthermia): 69.2%
CCN1C=CC(=CC=C(C=Cc2cc[n+](CC)c3ccccc23)c2cc[n+](CC)c3ccccc23)c2ccccc21 [compound 2]	44.5	–	–	–	–	–	–	–	–	–	–	–	–	–	–	–	–	–	30	≥ 4.0	–
CCN1C=CC(=CC=C(C=Cc2cc[n+](CC)c3ccccc23)c2cc[n+](CC)c3ccccc23)c2ccccc21 [compound 3]	32.3	–	–	–	–	–	–	–	–	–	–	–	–	–	–	–	–	–	31	≥ 4.0	–
CCN1C=CC(=CC=C(C=Cc2cc[n+](CC)c3ccccc23)c2cc[n+](CC)c3ccccc23)c2ccccc21 [compound 4]	36.2	–	–	–	–	–	–	–	–	–	–	–	–	–	–	–	–	–	37	≥ 4.0	–
CCN1C=CC(=CC=C(C=Cc2cc[n+](CC)c3ccccc23)c2cc[n+](CC)c3ccccc23)c2ccccc21 [compound 5]	27.5	–	–	–	–	–	–	–	–	–	–	–	–	–	–	–	–	–	28	≥ 4.0	–
CN1C=CC(=CC=C(C=Cc2cc[n+](C)c3ccccc23)c2cc[n+](C)c3ccccc23)c2ccccc21 [compound 6]	41.8	–	–	–	–	–	–	–	–	–	–	–	–	65	≥ 4000	–	–	–	–	–	–

Source: US5491151A, “Antitumor treatment method” (Kabushiki Kaisha Hayashibara Seibutsu Kagaku Kenkyujo, priority 1989, dated 1996)
